Results as given in the supplement of paper PMC10307832.

Assays:
Test in all cases: relative viability (nuclei count vs DMSO), 5 days (fraction); higher = more cells survive
Omipalisib = compound: COc1ncc(-c2ccc3nccc(-c4ccnnc4)c3c2)cc1NS(=O)(=O)c1ccc(F)cc1F [Omipalisib]
Outline: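 Lung cancer cell lines in 1536-well plates were exposed by pinning to five library-drug doses (not always all listed) √10 apart, following an overnight hold at 37 °C. MetaXpress counted Hoechst-stained nuclei from 4× images taken after 5 days without medium change. Viability is the median ratio of treated-well to vehicle-well nuclei across plates. Plates required control CV below 25% and at least one doubling.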

Omipalisib + Crizotinib = compound: COc1ncc(-c2ccc3nccc(-c4ccnnc4)c3c2)cc1NS(=O)(=O)c1ccc(F)cc1F [Omipalisib] + C[C@@H](Oc1cc(-c2cnn(C3CCNCC3)c2)cnc1N)c1c(Cl)ccc(F)c1Cl [Crizotinib] (partner 1 µM)
Outline: (§1)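 Relative viability is defined as nuclei in treated wells over nuclei in vehicle wells. Duplicate plates were run and medians reported. Lung cancer cell lines in 1536-well plates were dosed by pin tool one day after seeding, with one drug or with a fixed anchor-drug dose plus five library-drug doses (not always all listed) in √10 steps, and nuclei were counted after 5 days.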

Omipalisib + AZD7762 = compound: COc1ncc(-c2ccc3nccc(-c4ccnnc4)c3c2)cc1NS(=O)(=O)c1ccc(F)cc1F [Omipalisib] + NC(=O)Nc1cc(-c2cccc(F)c2)sc1C(=O)N[C@H]1CCCNC1 [AZD7762] (partner 0.2 µM)
Outline: as §1

Omipalisib + Olaparib = compound: COc1ncc(-c2ccc3nccc(-c4ccnnc4)c3c2)cc1NS(=O)(=O)c1ccc(F)cc1F [Omipalisib] + O=C(c1cc(Cc2n[nH]c(=O)c3ccccc23)ccc1F)N1CCN(C(=O)C2CC2)CC1 [Olaparib] (partner 8 µM)
Outline: as §1

Omipalisib + Alpelisib = compound: COc1ncc(-c2ccc3nccc(-c4ccnnc4)c3c2)cc1NS(=O)(=O)c1ccc(F)cc1F [Omipalisib] + Cc1nc(NC(=O)N2CCC[C@H]2C(N)=O)sc1-c1ccnc(C(C)(C)C(F)(F)F)c1 [Alpelisib] (partner 2 µM)
Outline: as §1

Omipalisib + Phenformin = compound: COc1ncc(-c2ccc3nccc(-c4ccnnc4)c3c2)cc1NS(=O)(=O)c1ccc(F)cc1F [Omipalisib] + N=C(N)NC(=N)NCCc1ccccc1 [Phenformin] (partner 250 µM)
Outline: as §1

Cell Line | relative viability (Omipalisib; 0.0003 µM) | relative viability (Omipalisib; 0.003 µM) | relative viability (Omipalisib; 0.03 µM) | relative viability (Omipalisib + Crizotinib; first compound 0.0003 µM) | relative viability (Omipalisib + Crizotinib; first compound 0.003 µM) | relative viability (Omipalisib + Crizotinib; first compound 0.03 µM) | relative viability (Omipalisib + AZD7762; first compound 0.0003 µM) | relative viability (Omipalisib + AZD7762; first compound 0.003 µM) | relative viability (Omipalisib + AZD7762; first compound 0.03 µM) | relative viability (Omipalisib + Olaparib; first compound 0.0003 µM) | relative viability (Omipalisib + Olaparib; first compound 0.003 µM) | relative viability (Omipalisib + Olaparib; first compound 0.03 µM) | relative viability (Omipalisib + Alpelisib; first compound 0.0003 µM) | relative viability (Omipalisib + Alpelisib; first compound 0.003 µM) | relative viability (Omipalisib + Alpelisib; first compound 0.03 µM) | relative viability (Omipalisib + Phenformin; first compound 0.0003 µM) | relative viability (Omipalisib + Phenformin; first compound 0.003 µM) | relative viability (Omipalisib + Phenformin; first compound 0.03 µM)
201T | 0.986 | 1.03 | 0.729 | 0.988 | 1.05 | 0.731 | 0.592 | 0.516 | 0.459 | 0.803 | 0.859 | 0.526 | 1.02 | 0.999 | 0.735 | 0.47 | 0.421 | 0.338
A-427 | 0.994 | 0.866 | 0.828 | 0.818 | 0.736 | 0.639 | 0.715 | 0.628 | 0.579 | 0.699 | 0.604 | 0.611 | 1.1 | 0.993 | 1.03 | 0.382 | 0.224 | 0.337
ABC-1 | 1.02 | 0.705 | 0.538 | 0.811 | 0.899 | 0.49 | 0.888 | 0.929 | 0.674 | 0.911 | 0.764 | 0.619 | 0.734 | 0.879 | 0.677 | 0.221 | 0.234 | 0.224
BEN | 0.789 | 0.577 | 0.712 | 0.635 | 0.531 | 0.464 | 0.533 | 0.495 | 0.521 | 1.01 | 0.769 | 0.607 | 0.781 | 0.58 | 0.585 | 0.259 | 0.277 | 0.27
CAL-12T | 1.12 | 1.1 | 0.594 | 0.574 | 0.676 | 0.436 | 0.705 | 0.906 | 0.615 | 0.76 | 0.691 | 0.349 | 0.989 | 0.95 | 0.774 | 0.543 | 0.573 | 0.361
COR-L23 | 1.01 | 1 | 0.631 | 0.794 | 0.667 | 0.292 |  |  |  | 0.34 | 0.301 | 0.265 | 0.879 | 0.801 | 0.431 | 0.461 | 0.508 | 0.406
COR-L 105 | 0.937 | 0.976 | 0.535 | 0.799 | 0.779 | 0.558 |  |  |  | 0.596 | 0.708 | 0.569 | 0.944 | 0.837 | 0.601 | 0.468 | 0.458 | 0.289
ChaGo-K-1 | 0.978 | 0.917 | 0.919 | 1.04 | 1.09 | 1.07 | 0.899 | 0.811 | 0.836 | 0.455 | 0.38 | 0.399 |  |  |  | 0.486 | 0.401 | 0.406
EKVX | 0.985 | 0.79 | 0.44 | 0.934 | 0.824 | 0.402 | 0.638 | 0.723 | 0.285 | 0.912 | 0.734 | 0.39 | 0.85 | 0.72 | 0.397 | 0.228 | 0.254 | 0.15
EMC-BAC-2 | 0.848 | 0.613 | 0.549 | 0.744 | 0.665 | 0.395 | 0.989 | 0.719 | 0.515 | 0.391 | 0.407 | 0.252 | 0.759 | 0.663 | 0.505 | 0.476 | 0.368 | 0.334
EPLC-272H | 0.958 | 0.661 | 0.387 | 1.08 | 0.794 | 0.325 | 0.149 | 0.213 | 0.167 | 0.712 | 0.36 | 0.131 | 0.883 | 0.794 | 0.477 | 0.294 | 0.253 | 0.193
H3255 | 0.93 | 0.85 | 0.51 | 0.859 | 0.811 | 0.421 | 1 | 0.869 | 0.566 | 0.559 | 0.526 | 0.409 | 0.714 | 0.606 | 0.444 | 0.365 | 0.39 | 0.269
HARA | 0.952 | 0.822 | 0.42 | 1.09 | 1.02 | 0.395 | 0.384 | 0.461 | 0.334 | 0.699 | 0.512 | 0.214 | 0.769 | 0.704 | 0.434 | 0.539 | 0.334 | 0.332
HCC-15 | 0.973 | 0.691 | 0.7 | 0.793 | 0.734 | 0.655 | 1.23 | 0.916 | 0.91 | 0.681 | 0.643 | 0.542 | 0.922 | 0.73 | 0.789 | 0.427 | 0.372 | 0.306
HCC-44 | 1.01 | 0.953 | 0.416 | 0.783 | 0.74 | 0.308 | 1 | 1.13 | 1.07 | 1.01 | 0.974 | 0.534 | 0.742 | 0.619 | 0.29 | 0.202 | 0.141 | 0.102
HCC-78 | 0.937 | 0.666 | 0.345 | 0.299 | 0.232 | 0.192 | 0.593 | 0.508 | 0.281 | 0.665 | 0.542 | 0.298 | 0.297 | 0.296 | 0.193 | 0.683 | 0.571 | 0.282
HCC-366 | 0.938 | 0.853 | 0.366 | 0.365 | 0.0929 | 0.041 | 0.288 | 0.208 | 0.184 | 0.327 | 0.137 | 0.0831 | 0.352 | 0.182 | 0.103 | 0.625 | 0.263 | 0.181
